The results in this text go back to ChEMBL document CHEMBL5038648, “Dolabellane Diterpenes and Elemane Alkaloids from the Soft Coral Clavularia inflata Collected in the South China Sea” (J Nat Prod, 2022).

Molecules are shown by their SMILES. Active and inactive are the calls of the source. The rule behind the calls is not given here.

For assay [1], the species on record is Danio rerio. Put plainly: Antiinflammatory activity in transgenic fluorescent zebrafish expressing EGFP assessed as reduction in CuSO4 induced number of macrophages surrounding the neuromast at 20 uM preincubated for 2 hrs followed by Cuso4 addition and measured after 1 hr by fluorescence microscopic analysis. Type of assay: functional, organism-based. The note with it: time 3.0 hrs.

The species named for assay [2] is Danio rerio. Put plainly: Antiinflammatory activity in transgenic fluorescent zebrafish expressing EGFP assessed as reduction in CuSO4 induced macrophage migration at 20 uM preincubated for 2 hrs followed Cuso4 addition and measured after 1 hr by fluorescence microscopic analysis. The note with it: time 3.0 hrs. Type of assay: functional, organism-based.

Turning to `C=C1CC/C=C(\C)C[C@@H](O)[C@@H]2C(C(C)(C)O)=CC[C@@]2(C)CC1`, the outcome in the assay listed under Danio rerio [1] and in the assay listed under Danio rerio [2] was Active.

`CC1=C2C(=O)C[C@@]3(C)CC/C(C)=C\C(=O)C[C@@H](C)C[C@@H](OC1=O)[C@H]23`: the result in the assay filed under Danio rerio [1] and in the assay listed under Danio rerio [2] was Active.

In the case of `COc1ccc2c(c1)c(CC(=O)O)c(C)n2C(=O)c1ccc(Cl)cc1`, the outcome in the assay listed under Danio rerio [1] and in the assay listed under Danio rerio [2] was Active.

Turning to `C=C[C@]1(C)C[C@@H]2NC(=O)C(C)=C2C[C@H]1C(=C)C(=O)OC`, the result in the assay listed under Danio rerio [1] and in the assay filed under Danio rerio [2] was Active.

`CC1=C2CC[C@@]3(C)CC/C(C)=C/C(=O)C[C@@H](C)C[C@@H](OC1=O)[C@H]23`: the result in the assay filed under Danio rerio [1] and in the assay listed under Danio rerio [2] was Active.

Consider `C=C[C@@]1(C)C[C@H]2NC(=O)C(C)=C2C[C@@H]1C(=C)C(=O)OC`, for which the result in the assay filed under Danio rerio [1] and in the assay listed under Danio rerio [2] was Active.

Consider `CC1=C2CC[C@@]3(C)CC/C(C)=C\C(=O)C[C@@H](C)C[C@@H](OC1=O)[C@]23OO`, for which the outcome in the assay filed under Danio rerio [1] and in the assay filed under Danio rerio [2] was Active.

`CC1=C2CC[C@@]3(C)/C=C/[C@]4(C)C[C@](O)(C[C@@H](C)C[C@@H](OC1=O)[C@H]23)OO4`: the outcome in the assay listed under Danio rerio [1] and in the assay listed under Danio rerio [2] was Active.

`C=C1CC/C=C(\C)C[C@H]2OC(=O)C(C)=C3CC[C@@](C)(CC1)[C@@H]32`: the outcome in the assay listed under Danio rerio [1] and in the assay filed under Danio rerio [2] was Active.
